# In paper PMC11062922 (Nature Chemical Biology, 2023):
# Tests used:
# SYK = molecular target: T1, SYK (Homo sapiens, UniProt P43405); test: Kinobeads two-dose competition binding: SYK
# T1 construct: endogenous in cells
# [1] = molecular target: T2, endogenous kinases and other proteins enriched by Kinobeads from mixed lysates of K-562, COLO-205, MV-4-11, SK-N-BE(2) and OVCAR-8 (Homo sapiens, UniProt P06239); test: Kinobeads competition binding profiling, two doses (100 nM and 1 µM);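 further: inhibitor preincubated 45 min at 4 °C in cell lysate, then bead pulldown. Bound protein quantified by label-free mass spectrometry relative to DMSO vehicle control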
# T2 construct: endogenous in cells
# T2 sequence (P06239 whole entry): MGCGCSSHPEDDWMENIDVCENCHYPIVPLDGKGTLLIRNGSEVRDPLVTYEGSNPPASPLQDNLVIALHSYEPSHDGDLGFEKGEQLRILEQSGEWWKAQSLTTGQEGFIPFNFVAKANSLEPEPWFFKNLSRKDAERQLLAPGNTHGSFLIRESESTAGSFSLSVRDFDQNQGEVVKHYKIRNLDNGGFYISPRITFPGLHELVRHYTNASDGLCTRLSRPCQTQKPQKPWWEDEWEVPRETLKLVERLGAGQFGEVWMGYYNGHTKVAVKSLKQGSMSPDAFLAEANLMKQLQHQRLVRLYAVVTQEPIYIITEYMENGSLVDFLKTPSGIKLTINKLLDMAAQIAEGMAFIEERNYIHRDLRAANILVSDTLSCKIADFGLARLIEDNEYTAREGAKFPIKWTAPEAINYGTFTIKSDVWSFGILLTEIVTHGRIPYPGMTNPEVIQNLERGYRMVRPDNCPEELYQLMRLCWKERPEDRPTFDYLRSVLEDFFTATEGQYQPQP
# [2] = molecular target: T3, endogenous kinases and other proteins enriched by Kinobeads from mixed lysates of K-562, COLO-205, MV-4-11, SK-N-BE(2) and OVCAR-8 (Homo sapiens, UniProt P23458); test: as above
# T3 construct: to maximize the representation of endogenous proteins; endogenous in cells
# T3 sequence (P23458 whole entry): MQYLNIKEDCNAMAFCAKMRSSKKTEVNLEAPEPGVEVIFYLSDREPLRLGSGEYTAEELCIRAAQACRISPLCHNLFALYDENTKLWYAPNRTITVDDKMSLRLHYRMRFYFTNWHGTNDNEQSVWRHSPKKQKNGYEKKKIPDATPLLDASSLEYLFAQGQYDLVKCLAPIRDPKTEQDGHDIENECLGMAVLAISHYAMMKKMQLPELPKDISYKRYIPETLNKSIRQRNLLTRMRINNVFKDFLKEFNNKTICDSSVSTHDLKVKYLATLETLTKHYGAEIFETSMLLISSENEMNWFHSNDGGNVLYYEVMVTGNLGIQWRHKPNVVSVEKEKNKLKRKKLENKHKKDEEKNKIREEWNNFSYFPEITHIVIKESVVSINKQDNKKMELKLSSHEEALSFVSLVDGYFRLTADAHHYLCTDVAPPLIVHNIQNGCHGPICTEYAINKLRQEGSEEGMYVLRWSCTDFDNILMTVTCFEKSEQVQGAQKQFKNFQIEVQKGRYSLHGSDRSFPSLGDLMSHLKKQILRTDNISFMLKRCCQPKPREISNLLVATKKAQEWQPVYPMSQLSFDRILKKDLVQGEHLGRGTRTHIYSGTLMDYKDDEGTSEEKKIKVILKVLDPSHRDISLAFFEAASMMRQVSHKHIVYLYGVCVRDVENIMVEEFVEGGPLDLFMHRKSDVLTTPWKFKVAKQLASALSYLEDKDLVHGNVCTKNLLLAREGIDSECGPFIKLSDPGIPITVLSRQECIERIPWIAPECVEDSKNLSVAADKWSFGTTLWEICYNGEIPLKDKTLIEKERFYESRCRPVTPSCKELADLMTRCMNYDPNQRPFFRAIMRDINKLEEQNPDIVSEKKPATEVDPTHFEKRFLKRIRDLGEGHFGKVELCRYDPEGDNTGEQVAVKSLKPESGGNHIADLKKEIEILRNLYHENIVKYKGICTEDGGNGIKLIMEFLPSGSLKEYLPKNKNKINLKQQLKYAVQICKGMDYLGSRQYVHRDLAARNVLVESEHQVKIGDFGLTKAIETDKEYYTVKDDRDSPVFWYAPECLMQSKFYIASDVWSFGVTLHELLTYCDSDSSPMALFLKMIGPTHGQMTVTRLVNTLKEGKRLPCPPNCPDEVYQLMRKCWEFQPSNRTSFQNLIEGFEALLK
# [3] = molecular target: T4, endogenous kinases and other proteins enriched by Kinobeads from mixed lysates of K-562, COLO-205, MV-4-11, SK-N-BE(2) and OVCAR-8 (Homo sapiens, UniProt P12931); test: as above
# T4 construct: to maximize the representation of endogenous proteins; endogenous in cells
# T4 sequence (P12931 whole entry): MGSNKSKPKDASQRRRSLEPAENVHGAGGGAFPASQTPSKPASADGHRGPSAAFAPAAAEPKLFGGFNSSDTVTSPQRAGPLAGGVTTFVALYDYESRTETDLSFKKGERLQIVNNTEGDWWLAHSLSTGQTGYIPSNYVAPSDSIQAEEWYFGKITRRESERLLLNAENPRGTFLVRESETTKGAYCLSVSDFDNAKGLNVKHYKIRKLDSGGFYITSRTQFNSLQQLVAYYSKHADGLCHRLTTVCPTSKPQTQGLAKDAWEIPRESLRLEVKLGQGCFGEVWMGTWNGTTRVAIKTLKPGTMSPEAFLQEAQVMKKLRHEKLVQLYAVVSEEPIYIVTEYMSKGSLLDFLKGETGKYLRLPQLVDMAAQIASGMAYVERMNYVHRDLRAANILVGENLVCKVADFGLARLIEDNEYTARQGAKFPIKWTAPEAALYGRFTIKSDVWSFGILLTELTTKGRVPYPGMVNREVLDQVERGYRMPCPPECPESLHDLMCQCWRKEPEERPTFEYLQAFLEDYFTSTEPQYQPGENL
# ADCK1 = molecular target: T5, ADCK1 (Homo sapiens, UniProt Q86TW2); test: Kinobeads competition binding: ADCK1; details: target ADCK1
# T5 construct: endogenous in cells
# T5 sequence (Q86TW2 1-530): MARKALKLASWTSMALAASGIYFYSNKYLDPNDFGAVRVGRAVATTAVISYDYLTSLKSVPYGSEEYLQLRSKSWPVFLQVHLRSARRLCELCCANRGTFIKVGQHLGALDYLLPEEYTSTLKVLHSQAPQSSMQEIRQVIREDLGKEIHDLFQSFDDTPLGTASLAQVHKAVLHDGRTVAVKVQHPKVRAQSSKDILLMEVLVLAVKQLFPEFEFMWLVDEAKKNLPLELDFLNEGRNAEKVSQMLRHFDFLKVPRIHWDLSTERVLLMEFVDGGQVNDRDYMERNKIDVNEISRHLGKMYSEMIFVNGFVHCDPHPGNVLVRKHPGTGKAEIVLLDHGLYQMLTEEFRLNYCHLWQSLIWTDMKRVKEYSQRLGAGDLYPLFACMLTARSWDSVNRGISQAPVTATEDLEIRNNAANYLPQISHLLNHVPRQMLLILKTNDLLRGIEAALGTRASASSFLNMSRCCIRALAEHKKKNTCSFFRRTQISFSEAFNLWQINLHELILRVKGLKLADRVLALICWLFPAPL
# Source text: Supplement 41589_2023_1459_MOESM4_ESM.xlsx, sheet "CATDS matrix" | column: ADCK1
# PIK3CD = molecular target: T6, PIK3CD (Homo sapiens, UniProt O00329); test: Kinobeads competition binding: PIK3CD; details: target PIK3CD
# T6 construct: a mixture of lysates from five cancer cell lines; endogenous in cells
# T6 sequence (O00329 whole entry): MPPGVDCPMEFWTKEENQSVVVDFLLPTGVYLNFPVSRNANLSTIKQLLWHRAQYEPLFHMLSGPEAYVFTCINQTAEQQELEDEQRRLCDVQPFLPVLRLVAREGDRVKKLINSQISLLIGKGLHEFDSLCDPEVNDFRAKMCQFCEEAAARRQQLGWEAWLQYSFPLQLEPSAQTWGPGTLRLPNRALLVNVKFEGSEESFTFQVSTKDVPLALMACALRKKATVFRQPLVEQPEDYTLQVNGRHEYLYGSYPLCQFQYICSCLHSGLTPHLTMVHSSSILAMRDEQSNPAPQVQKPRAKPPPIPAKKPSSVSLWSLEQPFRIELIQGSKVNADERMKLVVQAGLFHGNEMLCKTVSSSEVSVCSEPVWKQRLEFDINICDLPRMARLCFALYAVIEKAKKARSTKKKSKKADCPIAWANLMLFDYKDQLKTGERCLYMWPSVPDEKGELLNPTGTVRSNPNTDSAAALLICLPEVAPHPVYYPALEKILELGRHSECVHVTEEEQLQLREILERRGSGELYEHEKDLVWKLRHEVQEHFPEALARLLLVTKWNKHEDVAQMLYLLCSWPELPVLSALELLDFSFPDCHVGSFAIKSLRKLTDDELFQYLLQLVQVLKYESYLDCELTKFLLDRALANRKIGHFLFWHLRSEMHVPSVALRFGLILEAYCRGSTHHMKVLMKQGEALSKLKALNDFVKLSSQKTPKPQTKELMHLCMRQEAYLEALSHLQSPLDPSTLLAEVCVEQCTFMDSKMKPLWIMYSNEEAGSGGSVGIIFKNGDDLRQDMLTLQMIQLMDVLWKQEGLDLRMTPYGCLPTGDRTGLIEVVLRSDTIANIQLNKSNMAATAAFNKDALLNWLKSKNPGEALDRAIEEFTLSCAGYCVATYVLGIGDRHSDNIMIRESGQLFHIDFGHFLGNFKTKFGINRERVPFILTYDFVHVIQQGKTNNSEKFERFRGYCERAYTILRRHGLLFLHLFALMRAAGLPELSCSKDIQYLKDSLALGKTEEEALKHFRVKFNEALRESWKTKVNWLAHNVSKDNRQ
# T6 sequence (P27986 whole entry partner): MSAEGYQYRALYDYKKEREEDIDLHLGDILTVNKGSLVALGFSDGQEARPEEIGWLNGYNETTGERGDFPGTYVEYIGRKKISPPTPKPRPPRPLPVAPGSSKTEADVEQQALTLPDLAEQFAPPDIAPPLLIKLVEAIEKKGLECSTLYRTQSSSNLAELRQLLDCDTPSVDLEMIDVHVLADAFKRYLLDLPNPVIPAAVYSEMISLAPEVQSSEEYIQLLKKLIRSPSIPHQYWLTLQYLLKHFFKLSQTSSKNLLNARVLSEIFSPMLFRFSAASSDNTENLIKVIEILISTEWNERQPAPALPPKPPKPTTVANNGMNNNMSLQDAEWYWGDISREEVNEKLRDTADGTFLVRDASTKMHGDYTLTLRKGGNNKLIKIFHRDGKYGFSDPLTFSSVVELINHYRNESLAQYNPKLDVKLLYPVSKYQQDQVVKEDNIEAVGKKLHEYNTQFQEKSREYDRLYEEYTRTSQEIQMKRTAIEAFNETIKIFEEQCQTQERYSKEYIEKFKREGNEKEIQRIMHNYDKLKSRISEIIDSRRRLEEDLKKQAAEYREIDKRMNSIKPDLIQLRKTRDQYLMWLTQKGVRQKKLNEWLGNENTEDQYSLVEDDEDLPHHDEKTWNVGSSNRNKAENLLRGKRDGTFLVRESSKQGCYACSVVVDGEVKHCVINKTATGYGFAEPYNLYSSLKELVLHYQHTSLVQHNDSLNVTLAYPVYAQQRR
# MAPK7 = test: Kinobeads competition binding: MAPK7; parameters: species or system human; details: target MAPK7
# HSPE1 = test: Kinobeads competition binding: HSPE1; parameters: species or system human; details: target HSPE1
# MARK2 = test: Kinobeads competition binding: MARK2; parameters: species or system human; details: target MARK2
# MAP3K11 = test: Kinobeads competition binding: MAP3K11; parameters: species or system human; details: target MAP3K11
# PKN1 = molecular target: T7, PKN1 (Homo sapiens, UniProt Q16512); test: Kinobeads full dose-response competition binding: PKN1; details: Gene Name PKN1; for Relative Intensity 0.3nM: 0.3nM compound; for Relative Intensity 0.3nM / Relative Intensity 1nM / Relative Intensity 3nM / Relative Intensity 10nM / Relative Intensity 30nM / Relative Intensity 100nM / Relative Intensity 300nM / Relative Intensity 1000nM: DMSO = 1; for Relative Intensity 1nM: 1nM compound; for Relative Intensity 3nM: 3nM compound; for Relative Intensity 10nM: 10nM compound; for Relative Intensity 30nM: 30nM compound; for Relative Intensity 100nM: 100nM compound; for Relative Intensity 300nM: 300nM compound; for Relative Intensity 1000nM: 1000nM compound
# T7 construct: a mixture of lysates from five cancer cell lines; endogenous in cells
# T7 sequence (Q16512 whole entry): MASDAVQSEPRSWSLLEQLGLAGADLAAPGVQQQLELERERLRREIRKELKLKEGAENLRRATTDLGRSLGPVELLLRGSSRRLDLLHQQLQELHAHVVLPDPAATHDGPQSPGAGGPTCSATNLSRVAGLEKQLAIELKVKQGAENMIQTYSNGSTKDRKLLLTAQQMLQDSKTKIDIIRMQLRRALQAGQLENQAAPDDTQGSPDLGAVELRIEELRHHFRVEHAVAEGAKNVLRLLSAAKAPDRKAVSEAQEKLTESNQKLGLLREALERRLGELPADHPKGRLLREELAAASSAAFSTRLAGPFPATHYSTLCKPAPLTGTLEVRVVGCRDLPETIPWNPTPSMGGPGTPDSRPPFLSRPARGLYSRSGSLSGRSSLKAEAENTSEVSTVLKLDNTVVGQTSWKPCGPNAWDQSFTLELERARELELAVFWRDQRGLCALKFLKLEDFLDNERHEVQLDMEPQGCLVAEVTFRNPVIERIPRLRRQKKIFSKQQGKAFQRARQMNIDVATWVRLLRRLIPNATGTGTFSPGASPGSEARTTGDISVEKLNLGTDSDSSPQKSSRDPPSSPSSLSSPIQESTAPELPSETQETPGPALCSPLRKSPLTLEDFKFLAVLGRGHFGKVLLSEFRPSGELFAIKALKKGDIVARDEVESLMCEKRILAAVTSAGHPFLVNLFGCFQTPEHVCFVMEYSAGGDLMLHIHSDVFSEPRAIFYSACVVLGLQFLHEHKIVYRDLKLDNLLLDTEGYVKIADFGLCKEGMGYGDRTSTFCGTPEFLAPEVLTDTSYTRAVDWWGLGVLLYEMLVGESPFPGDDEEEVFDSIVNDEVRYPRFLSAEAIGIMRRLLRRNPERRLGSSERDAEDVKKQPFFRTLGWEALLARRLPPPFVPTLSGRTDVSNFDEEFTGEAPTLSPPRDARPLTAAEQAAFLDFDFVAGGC
# LATS1 = molecular target: T8, LATS1 (Homo sapiens, UniProt O95835); test: Kinobeads full dose-response competition binding: LATS1; details: Gene Name LATS1; for Relative Intensity 0.3nM: 0.3nM compound; for Relative Intensity 0.3nM / Relative Intensity 1nM / Relative Intensity 3nM / Relative Intensity 10nM / Relative Intensity 30nM / Relative Intensity 100nM / Relative Intensity 300nM / Relative Intensity 1000nM: DMSO = 1; for Relative Intensity 1nM: 1nM compound; for Relative Intensity 3nM: 3nM compound; for Relative Intensity 10nM: 10nM compound; for Relative Intensity 30nM: 30nM compound; for Relative Intensity 100nM: 100nM compound; for Relative Intensity 300nM: 300nM compound; for Relative Intensity 1000nM: 1000nM compound; for Kd: EC50 with Correction, read-out: apparent Kd; for Kd / EC50: doses in nM; for EC50: eight-dose curve fit
# T8 construct: endogenous in cells
# T8 sequence (O95835 1-1130): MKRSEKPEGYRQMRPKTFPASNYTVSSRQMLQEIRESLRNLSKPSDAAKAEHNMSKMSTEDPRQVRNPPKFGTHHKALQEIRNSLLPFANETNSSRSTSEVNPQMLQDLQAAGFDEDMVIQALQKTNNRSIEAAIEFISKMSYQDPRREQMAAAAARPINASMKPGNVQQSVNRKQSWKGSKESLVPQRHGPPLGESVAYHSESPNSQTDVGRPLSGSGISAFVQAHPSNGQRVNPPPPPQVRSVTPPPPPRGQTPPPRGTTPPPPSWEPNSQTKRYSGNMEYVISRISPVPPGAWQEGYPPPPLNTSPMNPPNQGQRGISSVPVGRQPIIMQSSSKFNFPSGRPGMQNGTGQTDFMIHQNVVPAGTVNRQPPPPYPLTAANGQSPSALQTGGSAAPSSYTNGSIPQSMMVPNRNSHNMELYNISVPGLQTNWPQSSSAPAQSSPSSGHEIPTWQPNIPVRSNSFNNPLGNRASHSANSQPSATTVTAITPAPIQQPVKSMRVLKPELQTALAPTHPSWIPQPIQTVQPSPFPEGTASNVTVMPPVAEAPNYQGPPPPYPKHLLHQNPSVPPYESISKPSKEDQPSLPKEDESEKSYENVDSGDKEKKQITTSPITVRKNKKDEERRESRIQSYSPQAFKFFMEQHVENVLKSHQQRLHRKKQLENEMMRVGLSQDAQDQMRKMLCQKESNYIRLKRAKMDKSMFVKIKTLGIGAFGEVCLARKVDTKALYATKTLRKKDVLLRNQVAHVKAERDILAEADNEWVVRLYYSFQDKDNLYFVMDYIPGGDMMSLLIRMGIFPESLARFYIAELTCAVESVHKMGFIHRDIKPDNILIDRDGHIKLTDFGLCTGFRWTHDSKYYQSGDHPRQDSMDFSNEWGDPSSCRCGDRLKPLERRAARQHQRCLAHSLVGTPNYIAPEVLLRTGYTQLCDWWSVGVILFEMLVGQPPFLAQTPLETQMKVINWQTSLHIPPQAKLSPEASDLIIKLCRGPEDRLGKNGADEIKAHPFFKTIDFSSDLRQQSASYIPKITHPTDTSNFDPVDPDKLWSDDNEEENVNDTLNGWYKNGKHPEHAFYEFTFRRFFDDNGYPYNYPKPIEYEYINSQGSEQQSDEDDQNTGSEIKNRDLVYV
compound,measurement,setting,value
C[C@]12O[C@H](C[C@]1(O)CO)n1c3ccccc3c3c4c(c5c6ccccc6n2c5c31)CNC4=O [Lestaurtinib],potency estimated from few doses,"SYK; read-out: Lestaurtinib Drugmatrix value, Gene Name SYK",157 nM
same,potency estimated from few doses,"[1]; read-out: Lestaurtinib Drugmatrix value (apparent Kd), Gene Name LCK, target LCK, each column = one Lestaurtinib control run_replicate",550 nM
same,potency estimated from few doses,"[2]; read-out: Lestaurtinib Drugmatrix value (apparent Kd), Gene Name JAK1, target JAK1, each column = one Lestaurtinib control run_replicate",881 nM
same,potency estimated from few doses,"[3]; read-out: Lestaurtinib Drugmatrix value, Gene Name SRC",618 nM
Nc1ncnc2[nH]c(-c3ccccc3)nc12 [AH5015_KCGS],CATDS,ADCK1,0
same,CATDS,PIK3CD,0.05532
same,CATDS,MAPK7,0
same,CATDS,HSPE1,0
same,CATDS,MARK2,0
same,CATDS,MAP3K11,0
CCc1cc2c(cc1N1CCC(N3CCOCC3)CC1)C(C)(C)c1[nH]c3cc(C#N)ccc3c1C2=O [Alectinib],CATDS,ADCK1,0
same,CATDS,PIK3CD,0
same,CATDS,MAPK7,0
same,CATDS,HSPE1,0
same,CATDS,MARK2,0
same,CATDS,MAP3K11,0
CCN1CCN(Cc2ccc(Nc3ncc(F)c(-c4cc(F)c5nc(C)n(C(C)C)c5c4)n3)nc2)CC1 [Abemaciclib],CATDS,ADCK1,0.02486
same,CATDS,PIK3CD,0
same,CATDS,MAPK7,0
same,CATDS,HSPE1,0
same,CATDS,MARK2,0
same,CATDS,MAP3K11,0
CN(C)C/C=C/C(=O)Nc1cc2c(Nc3ccc(F)c(Cl)c3)ncnc2cc1O[C@H]1CCOC1 [Afatinib],CATDS,ADCK1,0
same,CATDS,HSPE1,0
CCn1c(-c2nonc2N)nc2c(C#CC(C)(C)O)nc(OCCN)cc21 [GSK902056A],Relative Intensity 0.3nM,PKN1,0.9859
same,Relative Intensity 1nM,PKN1,1.011
same,Relative Intensity 3nM,PKN1,0.9965
same,Relative Intensity 10nM,PKN1,0.9627
same,Relative Intensity 30nM,PKN1,0.7754
same,Relative Intensity 100nM,PKN1,0.5397
same,Relative Intensity 300nM,PKN1,0.2684
same,Relative Intensity 1000nM,PKN1,0.1427
same,Kd,"PKN1; EC50 with Correction, doses in nM, read-out: apparent Kd",92.3 nM
same,EC50,"PKN1; eight-dose curve fit, doses in nM",92.3 nM
same,Relative Intensity 0.3nM,LATS1,0.9708
same,Relative Intensity 1nM,LATS1,1.022
same,Relative Intensity 3nM,LATS1,1.017
same,Relative Intensity 10nM,LATS1,1.027
same,Relative Intensity 30nM,LATS1,0.7859
same,Relative Intensity 100nM,LATS1,0.4584
same,Relative Intensity 300nM,LATS1,0.1984
same,Relative Intensity 1000nM,LATS1,0.02738
same,Kd,LATS1,87.4 nM
same,EC50,LATS1,87.4 nM
COc1cc(Nc2ncc3c(C)nc(-c4cc5ccccc5[nH]4)n3n2)cc(OC)c1OC [GW869516X],Kinobeads Data,SYK; SYK,no target
same,Kinobeads Data,[1]; LCK,no target
same,Kinobeads Data,[2]; JAK1(JH2domain-pseudokinase),no target
same,Kinobeads Data,[3]; SRC,no target
N#CC1(c2ccc(NC(=O)c3cccnc3NCc3ccncc3)cc2)CCCC1 [Apatinib],CATDS,ADCK1,0
same,CATDS,PIK3CD,0
same,CATDS,MAPK7,0
same,CATDS,HSPE1,0
same,CATDS,MARK2,0
same,CATDS,MAP3K11,0
CCn1c(-c2nonc2N)nc2c(C#CC(C)(C)O)nc(OCCNC)cc21 [GSK949675A],Relative Intensity 0.3nM,PKN1,1.026
same,Relative Intensity 1nM,PKN1,1.04
same,Relative Intensity 3nM,PKN1,1.011
same,Relative Intensity 10nM,PKN1,0.946
same,Relative Intensity 30nM,PKN1,0.9307
same,Relative Intensity 100nM,PKN1,0.9366
same,Relative Intensity 300nM,PKN1,0.7358
same,Relative Intensity 1000nM,PKN1,0.4262
same,Relative Intensity 0.3nM,LATS1,1.0287
same,Relative Intensity 1nM,LATS1,1.07
same,Relative Intensity 3nM,LATS1,1.096
same,Relative Intensity 10nM,LATS1,1.105
same,Relative Intensity 30nM,LATS1,1.087
same,Relative Intensity 100nM,LATS1,0.897
same,Relative Intensity 300nM,LATS1,0.6219
same,Relative Intensity 1000nM,LATS1,0.3635
same,Kd,LATS1,238 nM
same,EC50,LATS1,238 nM
